Assay results from US8304223B2, “Isoforms of pig liver esterase” (Enzymicals AG, priority 2007, dated 2012).
Where two headings read alike, the source gives them in different places. Values belong to the molecule of their own block, whether it stands above or below them.

Experiments:
[1] = tested on: PLE 4; assay: Influence of inhibitors, remaining activity by pNPA assay; assay type: biochemical, pig; settings: 25° C.
Protocol: (§1) Esterase activity was determined spectrophotometrically in sodium phosphate buffer (50 mM) by means of p-nitrophenyl acetate (10 mM, dissolved in dimethyl sulfoxide) as substrate. The amount of p-nitrophenol generated was determined at a wavelength of 410 nm (ε=15*10^3 M^−1 cm^−1) at RT and pH 7.5. 1 unit (U) is defined as the amount of enzyme capable of converting 1 μM p-nitrophenol per minute under analytical conditions (Krebsfänger, N., et. al., (1998) Enzyme Microb. Technol, 22, 641-646).
(§2) The inhibitability of the new PLE variants was determined by treating the crude extracts with any of three esterase inhibitors. […] Samples were taken at certain points in time and the remaining esterase activity was determined by the pNPA assay.

[2] = tested on: PLE 5; assay: as above; assay type: biochemical, pig; settings: 25° C.
Protocol: as §1, §2

[3] = tested on: PLE 3; assay: as above; assay type: biochemical, pig; settings: 25° C.
Protocol: as §1, §2

[4] = target: T1, PLE 2 (Sus scrofa, UniProt Q29550, F477A/K481R/L479F); assay: biochemical; assay type: biochemical, pig; settings: 25° C.; for remaining activity at 10 µM: inhibitor 0.01 mM; for Remaining activity in %: inhibitor 1 mM
T1 construct: made in house; host or cells: E. coli Origami (DE3) with pGro7 (GroEL/GroES coexpression), crude extract
T1 sequence (Q29550 19-562 F477A/L479F/K481R): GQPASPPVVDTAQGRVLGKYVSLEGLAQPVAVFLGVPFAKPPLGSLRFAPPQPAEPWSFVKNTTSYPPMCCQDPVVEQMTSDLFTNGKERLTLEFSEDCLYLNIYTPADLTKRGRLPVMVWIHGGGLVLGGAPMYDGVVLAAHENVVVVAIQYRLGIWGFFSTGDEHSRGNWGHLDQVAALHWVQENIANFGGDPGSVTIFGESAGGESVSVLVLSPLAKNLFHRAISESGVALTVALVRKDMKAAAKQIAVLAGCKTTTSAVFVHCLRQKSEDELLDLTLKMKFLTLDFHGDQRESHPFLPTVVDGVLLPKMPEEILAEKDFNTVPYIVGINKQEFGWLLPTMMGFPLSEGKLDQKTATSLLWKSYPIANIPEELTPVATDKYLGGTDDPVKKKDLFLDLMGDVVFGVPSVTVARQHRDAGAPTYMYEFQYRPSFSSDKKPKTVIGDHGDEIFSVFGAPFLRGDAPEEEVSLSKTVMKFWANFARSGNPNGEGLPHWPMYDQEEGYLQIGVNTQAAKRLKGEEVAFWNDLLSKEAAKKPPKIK
Protocol: as §1, §2

[5] = target: T2, PLE 1 (γ-PLE) (Sus scrofa, UniProt Q29550); assay: biochemical; assay type: biochemical, pig; settings: 25° C.; for remaining activity at 10 µM: inhibitor 0.01 mM; for Remaining activity in %: inhibitor 1 mM
T2 construct: made in house; host or cells: E. coli Origami (DE3) with pGro7 (GroEL/GroES coexpression), crude extract
T2 sequence (Q29550 with tags, fused parts or gaps): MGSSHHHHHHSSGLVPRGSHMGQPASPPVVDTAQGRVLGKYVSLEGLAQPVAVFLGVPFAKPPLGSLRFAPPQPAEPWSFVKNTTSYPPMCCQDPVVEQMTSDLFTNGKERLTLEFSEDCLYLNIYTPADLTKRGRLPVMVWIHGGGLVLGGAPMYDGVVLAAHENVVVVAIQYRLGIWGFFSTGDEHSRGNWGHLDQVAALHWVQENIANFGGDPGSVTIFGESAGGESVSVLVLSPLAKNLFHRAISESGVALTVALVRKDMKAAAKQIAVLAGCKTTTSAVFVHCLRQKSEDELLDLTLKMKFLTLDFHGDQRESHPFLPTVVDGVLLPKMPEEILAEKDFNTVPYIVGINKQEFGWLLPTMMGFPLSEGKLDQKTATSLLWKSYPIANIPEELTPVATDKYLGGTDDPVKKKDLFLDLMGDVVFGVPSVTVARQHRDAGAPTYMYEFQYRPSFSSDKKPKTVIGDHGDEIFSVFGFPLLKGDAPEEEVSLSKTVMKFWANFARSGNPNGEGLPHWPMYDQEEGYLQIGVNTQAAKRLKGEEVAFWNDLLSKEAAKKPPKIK
Protocol: as §1, §2

[6] = pH stat activity with achiral ester triolein; assay type: biochemical; settings: purified enzyme, pH stat at 37° C. and pH 7.5, 10 min
Protocol: (§3) Esterase substrate specificity was analyzed at constant pH. A known amount of esterase was added to an emulsion (20 mL) containing an ester substrate (5% (v/v); tributyrin, ethyl acetate, triolein or methyl butyrate) and gum arabic (2% (w/v)) at 37° C. The acid liberated was counter titrated automatically in a pH statiometer (Schott, Mainz, Germany) with 0.01 N NaOH in order to maintain a constant pH of 7.5. 1 unit (U) is defined as the amount of enzyme capable of generating 1 μM acid per minute under analytical conditions.

[7] = pH stat activity with achiral ester ethyl acetate; assay type: biochemical; settings: purified enzyme, pH stat at 37° C. and pH 7.5, 10 min
Protocol: as §3

[8] = Kinetic resolution of the racemates of substrate 1; assay type: biochemical; settings: calculated according to Chen et al.
Protocol: (§4) Hydrolysis was carried out in 1.5 ml reaction vessels in a thermomixer (Thermomixer comfort Eppendorf, Hamburg, Germany) at 37° C. 0.5 U esterase crude extract (based on the pNPA assay) were used for 1 ml of substrate solution (10 mM in sodium phosphate buffer pH 7.5, 50 mM). The reaction was stopped by extracting the mixture with dichloromethane, and the organic phase was dried over anhydrous sodium sulfate.
(§5) Enantiomeric purity and conversion were determined by gas chromatography. Enantioselectivity of the variant enzymes was calculated according to Chen et al. (C. S. Chen, Y. Fujimoto, G. Girdaukas, C. J. Sih, J. Am. Chem. Soc. 1982, 104, 7294.).
(§6) For a more detailed description of the synthesis of the substrates and the retention times in GC analysis, see Musidlowska-Persson, A. and Bornscheuer, U. T., “Substrate Specificity of the γ-isoenzyme of recombinant pig liver esterase towards acetates of secondary alcohols” J. Mol. Catal. B. Enzym. 2002, 19-20, 129-133.

[9] = substrate 4; literature data (*); cited from earlier work
[10] = pH stat activity with achiral ester methyl butyrate; assay type: biochemical; settings: purified enzyme, pH stat at 37° C. and pH 7.5, 10 min
Protocol: as §3

[11] = pH stat activity with achiral ester tributyrin; assay type: biochemical; settings: purified enzyme, pH stat at 37° C. and pH 7.5, 10 min
Protocol: as §3

[12] = Kinetic resolution of the racemates of substrate 2; assay type: biochemical; settings: calculated according to Chen et al.
Protocol: as §4, §5, §6

[13] = pNPA assay of esterase activity (crude extracts); assay type: biochemical; settings: crude extract, N-terminal His6 tag
Protocol: The chaperones were coexpressed with the PLE isoenzymes in 150 ml of LB medium containing 20 μg mL^−1 chloramphenicol and 50 μg mL^−1 ampicillin for plasmid selection. Chaperone expression was immediately initiated by adding 1 mg mL^−1 L-arabinose. PLE production was induced at OD600=0.5 by adding 40 μM IPTG. The cells were removed by centrifugation after 24 h, resuspended in 10 ml of sodium phosphate buffer (50 mM, pH 7.5) and disrupted using ultrasound. Cell debris was removed by centrifugation, and the supernatant was used for further experiments (crude cell extract). Protein content and esterase activity were determined according to Bradford or using the pNPA assay.
as §1

[14] = Kinetic resolution of the racemates of substrate 3; assay type: biochemical; settings: calculated according to Chen et al.
Protocol: as §4, §5, §6

[15] = pH stat activity with achiral ester ethyl caprylate; assay type: biochemical; settings: purified enzyme, pH stat at 37° C. and pH 7.5, 10 min
Protocol: Esterase substrate specificity was analyzed at constant pH. […] The acid liberated was counter titrated automatically in a pH statiometer (Schott, Mainz, Germany) with 0.01 N NaOH in order to maintain a constant pH of 7.5. 1 unit (U) is defined as the amount of enzyme capable of generating 1 μM acid per minute under analytical conditions.

[16] = Native PAGE with Fast Red activity staining; assay type: biochemical; settings: crude extracts, Fast Red staining with α-naphthyl acetate
Protocol: A mixture containing the crude extract of recombinantly produced PLE (5-15 μL, corresponding to 0.05-0.15 U of pNPA analysis) was mixed with buffer solution (20% (w/v) glycerol; 0.0025% (w/v) bromophenol blue in dH2O) (5-10 μL). Aliquots thereof were separated on a native polyacrylamide gel (7.5%). For activity staining, the gel was incubated in a mixture of freshly prepared α-naphthyl acetate and Fast Red. Formation of a red complex between α-naphthol generated and Fast Red indicated hydrolytic activity of the esterase. (Krebsfänger, N., et. al., (1998) Enzyme Microb. Technol, 22, 641-646). The gel was then stained with Coomassie Brilliant Blue.
Esterase activity was checked by applying the crude extracts to a native gel which was then incubated in Fast Red solution with α-naphthyl acetate as substrate. This was followed by Coomassie staining (FIG. 4: Native PAGE of the crude extracts of PLE2, clone 12, PLE3, PLE4, PLE5, γPLE and the E. coli Origami pGro7 wild type (negative control). Left-hand side: Fast Red staining with α-naphthyl acetate, right-hand side: subsequent Coomassie Brilliant Blue staining).

Molecule: O=S(=O)(F)Cc1ccccc1 [Phenylmethylsulfonyl fluoride (PMSF), phenylmethylsulfonyl fluoride]
- Remaining activity in % ([1]; inhibitor 0.01 mM, 1 min): 78%
- Remaining activity in % ([1]; inhibitor 0.01 mM, 5 min): 56%
- Remaining activity in % ([1]; inhibitor 0.01 mM, 30 min): 7%
- Remaining activity in % ([1]; inhibitor 0.01 mM, 60 min): 2%
- Remaining activity in % ([2]; inhibitor 0.01 mM, 1 min): 88%
- Remaining activity in % ([2]; inhibitor 0.01 mM, 5 min): 76%
- Remaining activity in % ([2]; inhibitor 0.01 mM, 30 min): 24%
- Remaining activity in % ([2]; inhibitor 0.01 mM, 60 min): 3%
- Remaining activity in % ([3]; inhibitor 0.01 mM, 1 min): 77%
- Remaining activity in % ([3]; inhibitor 0.01 mM, 5 min): 51%
- Remaining activity in % ([3]; inhibitor 0.01 mM, 30 min): 7%
- Remaining activity in % ([3]; inhibitor 0.01 mM, 60 min): 5%

Molecule: CNC(=O)Oc1ccc2c(c1)[C@]1(C)CCN(C)[C@@H]1N2C [Physostigmine, physostigmine]
- remaining activity at 10 µM ([4]; 1 min): 61%
- remaining activity at 10 µM ([4]; 5 min): 25%
- remaining activity at 10 µM ([4]; 30 min): 6%
- remaining activity at 10 µM ([5]; 1 min): 41%
- remaining activity at 10 µM ([5]; 5 min): 12%
- remaining activity at 10 µM ([5]; 30 min): 7%

Molecule: [F-].[Na+] [NaF, sodium fluoride]
- Remaining activity in % ([1]; inhibitor 1 mM, 5 min): 64%
- Remaining activity in % ([1]; inhibitor 1 mM, 30 min): 66%
- Remaining activity in % ([2]; inhibitor 1 mM, 5 min): 83%
- Remaining activity in % ([2]; inhibitor 1 mM, 30 min): 88%
- Remaining activity in % ([3]; inhibitor 1 mM, 5 min): 44%
- Remaining activity in % ([3]; inhibitor 1 mM, 30 min): 46%
- Remaining activity in % ([4]; 5 min): 17%
- Remaining activity in % ([4]; 30 min): 15%
- Remaining activity in % ([5]; 5 min): 20%
- Remaining activity in % ([5]; 30 min): 21%

- Volume activity [13]: 11 U/ml
B1: PLE 1: previously disclosed γ-isoenzyme of pig liver esterase (Seq. ID No. 2), recombinant from E. coli Origami with GroEL/ES (protein)
chain: T2 sequence (Q29550 with tags, fused parts or gaps)
modifications: Pig liver
- Specific activity, Triolein [6]: 0
- Specific activity, Ethyl acetate [7]: 38
- E (enantioselectivity) [8]: 4
- E (enantioselectivity) [9]: 17
- Specific activity, Methyl butyrate [10]: 57
- Specific activity, Tributyrin [11]: 306
- E (enantioselectivity) [12]: 17
- E (enantioselectivity) [14]: 72
- Specific activity, Ethyl caprylate [15]: 63
- Esterase activity (active bands) in native gel [16]: Active esterase bands are visible
